The values that follow are results of earlier work, collected in publication PMC12362594, “Design, Synthesis and Preclinical Evaluation of a Brain-Permeable PET Tracer for P2Y12 Receptor Imaging in the Brain” (Journal of Medicinal Chemistry, 2025).

The target in the data set is P2Y12 receptor. On the set-up: method as in not given. The note with it: Chinese hamster ovarian cell membranes; reported values from literature; ref not given; cited from earlier work.

Regarding `CCOC(=O)c1cc(C#N)c(N2CCC(C(=O)NS(=O)(=O)Cc3ccccc3)CC2)nc1C` [Compound 5, Ethyl 6-(4-((Benzylsulfonyl)-carbamoyl)-piperidin-1-yl)-5-cyano-2-methylnicotinate, reference compound], the IC50 is 11 nM.

What is called IC50 is the concentration needed to halve the response being measured.
